From ChEMBL document CHEMBL1201862, “PubChem BioAssay data set” (2004) come the findings set out here.

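Results reflect a 48-hour exposure of cells in 96-well plates to compound at five concentrations. Abbreviation: GI50, concentration required for 50% inhibition of growth.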 Calls of active or inactive are those of the source. No stated cut-off is given here; in the data, active = GI50 up to about 1.1 µM and inactive = higher.

Some test systems named below: IGROV-1; 786-0; UACC-257; SK-MEL-5; MOLT-4; SK-OV-3; OVCAR-8; SF-268; SNB-78; SK-MEL-28; HOP-62; HCT-116; SNB-19; ACHN; T47D; Hs-578T; BT-549; SR; NCI/ADR-RES; NCI-H226.
Holding throughout (test): NCI tumour cell line growth inhibition, 48 h

On to `CCOc1ccc(/N=N/c2ccc3oc(=O)c(C(=O)Nc4ccc(OC)cc4)cc3c2)cc1`, for which the GI50 in the assay with IGROV-1 is 23.5 µM (inactive); in the assay on 786-0 it was 21.9 µM (inactive); with UACC-257, 27.9 µM (inactive); with SK-MEL-5, 15 µM (inactive); in the assay on MOLT-4, 4.07 µM (inactive); with SK-OV-3, 41.9 µM (inactive). The GI50 with OVCAR-8 was 12.7 µM (inactive); with SF-268, 9.1 µM (inactive); in the assay with SNB-78, 21.3 µM (inactive); in the assay on SK-MEL-28 it was 18.9 µM (inactive); with HOP-62, 21.9 µM (inactive); in the assay with HCT-116, 11.3 µM (inactive). Moreover, the GI50 in the assay with SNB-19 is 14 µM (inactive).
`Cc1cc(NS(=O)(=O)c2ccc(NC(=O)c3ccc(Cl)c4c(Nc5ccc(S(=O)(=O)Nc6cc(C)on6)cc5)c5ccccc5nc34)cc2)no1`: the GI50 in the assay on IGROV-1 is 21.5 µM (inactive); with 786-0 it was 16 µM (inactive); in the assay on UACC-257, 20.2 µM (inactive); in the assay on SK-MEL-5, 23 µM (inactive); in the assay on MOLT-4 it was 29 µM (inactive); in the assay with SK-OV-3 it was 19.2 µM (inactive). The GI50 in the assay with OVCAR-8 is 46 µM (inactive); in the assay on SF-268, 13.8 µM (inactive); with SNB-78, 36.1 µM (inactive); in the assay with SK-MEL-28, > 10 µM (inactive); in the assay with ACHN it was 19 µM (inactive); in the assay with HOP-62, 23.3 µM (inactive). Also, the GI50 was 14.2 µM (inactive) with HCT-116 and 14.4 µM (inactive) in the assay on SNB-19.
`COc1ccc(C=O)cc1O[Si](C)(C)C(C)(C)C`: the GI50 with IGROV-1, in the assay with 786-0, in the assay with UACC-257, in the assay with SK-MEL-5, with MOLT-4 and in the assay with SK-OV-3 was > 100 µM (inactive) throughout. The GI50 in the assay with OVCAR-8, with SF-268, with SNB-78, in the assay with ACHN, with HOP-62 and in the assay with HCT-116 was > 100 µM (inactive) each time. Besides, the GI50 in the assay with SNB-19 was > 100 µM (inactive).
As for `O=C(O)CCC1CCc2cccc(OCC(=O)O)c2C1=O` (stereo not given), the GI50 in the assay with IGROV-1, with 786-0, in the assay with UACC-257, with SK-MEL-5, with MOLT-4 and in the assay on SK-OV-3 was > 100 µM (inactive) in each case. The GI50 in the assay on OVCAR-8, with SNB-78, with SK-MEL-28, in the assay on ACHN, with HOP-62 and with HCT-116 was > 100 µM (inactive) in each case. Further, the GI50 in the assay with SNB-19 is > 100 µM (inactive).
As for `Cn1c2c(c3ccccc31)CCN(CCCCN1CCN(c3cccc(Cl)c3)CC1)C2=O`, the GI50 is 15.9 µM (inactive) in the assay with IGROV-1; 13 µM (inactive) in the assay on 786-0; 7.03 µM (inactive) in the assay with UACC-257; 10.1 µM (inactive) in the assay on SK-MEL-5; 7.62 µM (inactive) in the assay on MOLT-4; 16.3 µM (inactive) in the assay on SK-OV-3. The GI50 was 17.8 µM (inactive) in the assay with OVCAR-8; 16.9 µM (inactive) with SF-268; 2.88 µM (inactive) in the assay with SNB-78; 6.07 µM (inactive) with SK-MEL-28; 14.9 µM (inactive) in the assay on ACHN; 15.2 µM (inactive) with HOP-62. Further, the GI50 in the assay with HCT-116 was 6.65 µM (inactive); in the assay with SNB-19, 17.7 µM (inactive).
As to `O=C(c1ccccc1)c1ccc2[nH]c(-c3c(Cl)c(Cl)c(Cl)c(Cl)c3-c3nnc(-c4ccccc4)o3)nc2c1`, the GI50 in the assay with IGROV-1 is 29.5 µM (inactive); in the assay with T47D, 23.9 µM (inactive); with 786-0, 36.6 µM (inactive); in the assay on UACC-257 it was 80.2 µM (inactive); in the assay with SK-MEL-5, 6.7 µM (inactive); in the assay with MOLT-4 it was 14.8 µM (inactive). Further, the GI50 is 50.8 µM (inactive) in the assay on SK-OV-3; 27.4 µM (inactive) in the assay with Hs-578T; 58.1 µM (inactive) with OVCAR-8; 31.4 µM (inactive) with SF-268; > 100 µM (inactive) with SK-MEL-28; 46 µM (inactive) in the assay on BT-549. In addition, the GI50 in the assay on SR was 4.06 µM (inactive); in the assay with NCI/ADR-RES it was 13.2 µM (inactive); in the assay with ACHN it was 69.7 µM (inactive); in the assay on HOP-62, 25.8 µM (inactive); in the assay on HCT-116, 27.4 µM (inactive); with SNB-19, 56.9 µM (inactive). Moreover, the GI50 with NCI-H226 is 22.8 µM (inactive).
For the compound `CCOC(=O)c1ccc(-c2cccs2)[nH]1`, the GI50 in the assay with IGROV-1 is 83.2 µM (inactive); in the assay on T47D, 31.6 µM (inactive); with 786-0, > 100 µM (inactive); with UACC-257, 91.6 µM (inactive); in the assay with SK-MEL-5, 30.8 µM (inactive); with MOLT-4, 51.4 µM (inactive). Further, the GI50 in the assay with SK-OV-3 was > 62.7 µM (inactive); with Hs-578T it was 76.9 µM (inactive); in the assay with OVCAR-8, > 55.5 µM (inactive); in the assay with SF-268, > 92 µM (inactive); with SK-MEL-28, > 80.5 µM (inactive); in the assay with BT-549, > 63.1 µM (inactive). For the same compound, the GI50 with SR is 54.7 µM (inactive); in the assay on NCI/ADR-RES, 42.2 µM (inactive); in the assay with ACHN it was 78.9 µM (inactive); with HOP-62 it was > 66.4 µM (inactive); in the assay on HCT-116, 68.5 µM (inactive); in the assay on SNB-19 it was 98.2 µM (inactive). Moreover, in the assay on NCI-H226, the GI50 is > 100 µM (inactive).
As to `OC1C2[C@@H](O)CCCN2C[C@@H](O)[C@H]1O` (stereo not given in full), the GI50 in the assay on IGROV-1, with T47D, with 786-0, with UACC-257, in the assay on SK-MEL-5 and in the assay with MOLT-4 was > 100 µM (inactive) throughout. For the same compound, the GI50 in the assay with SK-OV-3, with Hs-578T, in the assay on OVCAR-8, in the assay on SF-268, in the assay on SK-MEL-28 and in the assay on BT-549 was > 100 µM (inactive) in each case. In addition, the GI50 in the assay with SR, in the assay with NCI/ADR-RES, in the assay on ACHN, in the assay with HOP-62, in the assay with HCT-116 and in the assay on SNB-19 was > 100 µM (inactive) each time. Further, the GI50 with NCI-H226 is > 100 µM (inactive).
`COc1ccc2nc3cc([N+](=O)[O-])ccc3c(NNc3ccccc3)c2c1`: the GI50 is 2.93 µM (inactive) in the assay with IGROV-1; 26.9 µM (inactive) in the assay on T47D; 18.4 µM (inactive) with 786-0; 1.19 µM (inactive) in the assay on UACC-257; 16.7 µM (inactive) with SK-MEL-5; 21 µM (inactive) in the assay on MOLT-4. The GI50 is > 73.6 µM (inactive) in the assay with SK-OV-3; 26.5 µM (inactive) with Hs-578T; 39.3 µM (inactive) in the assay on OVCAR-8; 30.8 µM (inactive) with SF-268; 77.6 µM (inactive) with SK-MEL-28; 28.5 µM (inactive) in the assay with BT-549. Also, the GI50 was 14.8 µM (inactive) in the assay on SR; 31 µM (inactive) in the assay on NCI/ADR-RES; 30 µM (inactive) with ACHN; 27.7 µM (inactive) with HOP-62; 11.4 µM (inactive) in the assay on HCT-116; 56.4 µM (inactive) with SNB-19. Moreover, the GI50 with NCI-H226 was 0.596 µM (active).
With `CNC(=S)NN=C1NCCCCN1`, the GI50 in the assay on IGROV-1, with T47D, with 786-0, in the assay on UACC-257, with SK-MEL-5 and in the assay with MOLT-4 was > 100 µM (inactive) throughout. Further, the GI50 was > 100 µM (inactive) with SK-OV-3; 83.9 µM (inactive) in the assay on Hs-578T; > 100 µM (inactive) in the assay with OVCAR-8; > 100 µM (inactive) in the assay with SF-268; > 100 µM (inactive) with SK-MEL-28; > 100 µM (inactive) in the assay on BT-549. In addition, the GI50 in the assay on SR, with NCI/ADR-RES, with ACHN, in the assay on HOP-62, in the assay with HCT-116 and in the assay with SNB-19 was > 100 µM (inactive) each time. Further, in the assay with NCI-H226, the GI50 was > 100 µM (inactive).
For `COc1cc(/C=N/c2nc3cc4sc(/N=C/c5cc(OC)c(OC)c(OC)c5)nc4cc3s2)cc(OC)c1OC`, the GI50 with IGROV-1 was > 100 µM (inactive); in the assay with T47D it was 51.1 µM (inactive); in the assay on 786-0, 49.2 µM (inactive); in the assay with UACC-257, 73.6 µM (inactive); in the assay on SK-MEL-5, 37.1 µM (inactive); in the assay with MOLT-4, 31.3 µM (inactive). Besides, the GI50 is > 100 µM (inactive) in the assay with SK-OV-3; > 100 µM (inactive) with Hs-578T; 95.5 µM (inactive) in the assay on OVCAR-8; 89.1 µM (inactive) with SF-268; 21.7 µM (inactive) with SK-MEL-28; > 100 µM (inactive) with BT-549. In addition, the GI50 was 21.7 µM (inactive) with SR; 34.1 µM (inactive) with NCI/ADR-RES; > 100 µM (inactive) with ACHN; 57.1 µM (inactive) in the assay with HOP-62; 39.4 µM (inactive) in the assay with HCT-116; > 100 µM (inactive) with SNB-19. Further, the GI50 in the assay with NCI-H226 is 31.4 µM (inactive).
For the compound `Nc1nc(Cl)c(C=O)c(NCC2(CO)CCC2)n1`, the GI50 with IGROV-1 was 12.3 µM (inactive); in the assay with T47D it was 33.7 µM (inactive); in the assay with 786-0 it was 76 µM (inactive); in the assay with UACC-257, 24.8 µM (inactive); with SK-MEL-5, 14.5 µM (inactive); in the assay on MOLT-4, 18.3 µM (inactive). In addition, the GI50 in the assay with SK-OV-3 was 27.2 µM (inactive); in the assay on Hs-578T, 22.2 µM (inactive); in the assay on OVCAR-8, 15 µM (inactive); with SF-268 it was 16.6 µM (inactive); in the assay on SK-MEL-28, 34.8 µM (inactive); in the assay on BT-549 it was 28.6 µM (inactive). Also, the GI50 in the assay on SR is 3.21 µM (inactive); with NCI/ADR-RES it was 40 µM (inactive); in the assay on ACHN it was 37.8 µM (inactive); with HOP-62 it was 25.4 µM (inactive); in the assay with HCT-116, 17.7 µM (inactive); in the assay with SNB-19 it was 17.1 µM (inactive). Also, in the assay with NCI-H226, the GI50 was 15.4 µM (inactive).
